Experimental findings from patent publication US20230406885A1, “CYCLIC PEPTIDES FOR TRAPPING INTERLEUKIN-1 BETA” (MERCK SHARP & DOHME LLC, priority 2022, published 2023) are described below.

The structures appear in SMILES notation. *1 amine or outer side, *2 acyl side, *3 side chain or, on linkers, in order; H or OH if unused. Where a SMILES comes first, the peptide text is derived from it. [ ]: non-standard residue; d: D form. Ala(piperidin-4-yl) = O=C([C@H](CC1CCN([*:3])CC1)N[*:1])[*:2]; Trp(βS-Me,4-F) = C[C@@H](c1c[nH]c2cccc(F)c12)[C@H](N)C(=O)O; Bip(4'-COOH) = N[C@@H](Cc1ccc(-c2ccc(C(=O)O)cc2)cc1)C(=O)O; X1 = CC(=O)N1CCN(c2ccc(C[C@H](N[*:1])C(=O)[*:2])cn2)CC1; 1Nal(3S-Me) = C[C@@H](c1cccc2ccccc12)[C@H](N)C(=O)O; Phe(4-COOH) = N[C@@H](Cc1ccc(C(=O)O)cc1)C(=O)O; h3Pal(5-CN) = N#Cc1cncc(CC[C@H](N)C(=O)O)c1; Pro(4R-NH2) = N[C@H]1CN[C@H](C(=O)O)C1; AEF = NCCOc1ccc(C[C@H](N)C(=O)O)cc1; hTyr = N[C@@H](CCc1ccc(O)cc1)C(=O)O; hCha = N[C@@H](CCC1CCCCC1)C(=O)O; hPhe = N[C@@H](CCc1ccccc1)C(=O)O; Aad = N[C@@H](CCCC(=O)O)C(=O)O; dOrn = NCCC[C@@H](N)C(=O)O; dDab = NCC[C@@H](N)C(=O)O; dNMeA = CN[C@H](C)C(=O)O; Dab = NCC[C@H](N)C(=O)O; Dap = NC[C@H](N)C(=O)O

T1 sequence (P01584 117-269): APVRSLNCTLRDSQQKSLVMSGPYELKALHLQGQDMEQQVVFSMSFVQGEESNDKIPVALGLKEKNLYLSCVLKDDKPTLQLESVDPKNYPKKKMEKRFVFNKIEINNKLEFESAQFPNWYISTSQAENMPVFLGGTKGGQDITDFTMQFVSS

This test has as its target T1, Recombinant human IL-1β (Homo sapiens, UniProt P01584).
T1 construct: purchased BioLegend 579404
In words: IL-6 assay in MRC5 cells: inhibition of IL-1β induced IL-6 secretion (AlphaLISA). Particulars: inhibition of IL-1β induced IL-6 secretion in MRC5 cells; read-out: MRC5 IC50. The format is cell-based. A digest of the protocol:
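IL-1β at 2×EC80 in seeding medium (EMEM, 0.025% BSA) preincubated 1 h at ambient temperature with compound, then 3000 MRC5 cells/well added and incubated overnight at 37 °C, 5% CO2. IL-6 in conditioned medium quantified by AlphaLISA; IC50 from 4-parameter logistic fit.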
Background: Alpha assays give light when donor and acceptor beads are brought close together.
On to `CC(=O)NCCOc1ccc(C[C@@H]2NC(=O)[C@H](CC3CCNCC3)NC(=O)[C@@H](C)NC(=O)[C@H](CC(C)C)NC(=O)[C@H](Cc3c[nH]c4ccccc34)NC(=O)[C@H](Cc3ccc(-c4ccc(C(=O)O)cc4)cc3)NC(=O)CNC(=O)[C@@H](C)N(C)C(=O)[C@H](CC(=O)O)NC(=O)[C@H]([C@@H](C)c3c[nH]c4cccc(F)c34)NC(=O)[C@@H]3C[C@@H](N)CN3C(=O)CNC(=O)[C@H](Cc3ccc(C(=O)O)cc3)NC(=O)[C@H](Cc3c[nH]c4ccccc34)NC2=O)cc1` [Example 165] (cyclo([AEF](Ac)W[Phe(4-COOH)]G[Pro(4R-NH2)][Trp(βS-Me,4-F)]D[dNMeA]G[Bip(4'-COOH)]WL[dA][Ala(piperidin-4-yl)])), for which the IC50 – broadly, the concentration needed to halve the response being measured – came to 0.781 nM. Under `CC(=O)NCCOc1ccc(C[C@@H]2NC(=O)[C@H](CCc3ccccc3)NC(=O)[C@@H](C)NC(=O)[C@H](CC(C)C)NC(=O)[C@H](Cc3c[nH]c4ccccc34)NC(=O)[C@H](Cc3ccc(-c4ccc(C(=O)O)cc4)cc3)NC(=O)CNC(=O)[C@@H](C)N(C)C(=O)[C@H](CC(=O)O)NC(=O)[C@H]([C@@H](C)c3c[nH]c4cccc(F)c34)NC(=O)[C@@H]3C[C@@H](N)CN3C(=O)CNC(=O)[C@H](Cc3ccc(C(=O)O)cc3)NC(=O)[C@H](Cc3c[nH]c4ccccc34)NC2=O)cc1` [Example 166] (cyclo([AEF](Ac)W[Phe(4-COOH)]G[Pro(4R-NH2)][Trp(βS-Me,4-F)]D[dNMeA]G[Bip(4'-COOH)]WL[dA][hPhe])) stands 0.149 nM; under `CC(=O)NCCOc1ccc(C[C@@H]2NC(=O)[C@H](CCc3ccc(O)cc3)NC(=O)[C@@H](C)NC(=O)[C@H](CC(C)C)NC(=O)[C@H](Cc3c[nH]c4ccccc34)NC(=O)[C@H](Cc3ccc(-c4ccc(C(=O)O)cc4)cc3)NC(=O)CNC(=O)[C@@H](C)N(C)C(=O)[C@H](CC(=O)O)NC(=O)[C@H]([C@@H](C)c3c[nH]c4cccc(F)c34)NC(=O)[C@@H]3C[C@@H](N)CN3C(=O)CNC(=O)[C@H](Cc3ccc(C(=O)O)cc3)NC(=O)[C@H](Cc3c[nH]c4ccccc34)NC2=O)cc1` [Example 167] (cyclo([AEF](Ac)W[Phe(4-COOH)]G[Pro(4R-NH2)][Trp(βS-Me,4-F)]D[dNMeA]G[Bip(4'-COOH)]WL[dA][hTyr])), 0.136 nM. Regarding `CC(=O)NCCOc1ccc(C[C@@H]2NC(=O)[C@H](CCc3ccc(O)cc3)NC(=O)[C@@H](CCN)NC(=O)[C@H](CC(C)C)NC(=O)[C@H](Cc3c[nH]c4ccccc34)NC(=O)[C@H](Cc3ccc(-c4ccc(C(=O)O)cc4)cc3)NC(=O)CNC(=O)[C@@H](C)N(C)C(=O)[C@H](CC(=O)O)NC(=O)[C@H]([C@@H](C)c3c[nH]c4cccc(F)c34)NC(=O)[C@@H]3C[C@@H](N)CN3C(=O)CNC(=O)[C@H](Cc3ccc(C(=O)O)cc3)NC(=O)[C@H](Cc3c[nH]c4ccccc34)NC2=O)cc1` [Example 168] (cyclo([AEF](Ac)W[Phe(4-COOH)]G[Pro(4R-NH2)][Trp(βS-Me,4-F)]D[dNMeA]G[Bip(4'-COOH)]WL[dDab][hTyr])), the IC50 is 0.0847 nM. The value for `CC(=O)NCCOc1ccc(C[C@@H]2NC(=O)[C@H](CCc3ccc(O)cc3)NC(=O)[C@@H](CCCCN)NC(=O)[C@H](CC(C)C)NC(=O)[C@H](Cc3c[nH]c4ccccc34)NC(=O)[C@H](Cc3ccc(-c4ccc(C(=O)O)cc4)cc3)NC(=O)CNC(=O)[C@@H](C)N(C)C(=O)[C@H](CC(=O)O)NC(=O)[C@H]([C@@H](C)c3c[nH]c4cccc(F)c34)NC(=O)[C@@H]3C[C@@H](N)CN3C(=O)CNC(=O)[C@H](Cc3ccc(C(=O)O)cc3)NC(=O)[C@H](Cc3c[nH]c4ccccc34)NC2=O)cc1` [Example 169] (cyclo([AEF](Ac)W[Phe(4-COOH)]G[Pro(4R-NH2)][Trp(βS-Me,4-F)]D[dNMeA]G[Bip(4'-COOH)]WL[dK][hTyr])) was 0.112 nM; that for `CC(=O)NCCOc1ccc(C[C@@H]2NC(=O)[C@H](CCc3ccc(O)cc3)NC(=O)[C@@H](CCCN)NC(=O)[C@H](CC(C)C)NC(=O)[C@H](Cc3c[nH]c4ccccc34)NC(=O)[C@H](Cc3ccc(-c4ccc(C(=O)O)cc4)cc3)NC(=O)CNC(=O)[C@@H](C)N(C)C(=O)[C@H](CC(=O)O)NC(=O)[C@H]([C@@H](C)c3c[nH]c4cccc(F)c34)NC(=O)[C@@H]3C[C@@H](N)CN3C(=O)CNC(=O)[C@H](Cc3ccc(C(=O)O)cc3)NC(=O)[C@H](Cc3c[nH]c4ccccc34)NC2=O)cc1` [Example 170] (cyclo([AEF](Ac)W[Phe(4-COOH)]G[Pro(4R-NH2)][Trp(βS-Me,4-F)]D[dNMeA]G[Bip(4'-COOH)]WL[dOrn][hTyr])) was 0.0966 nM. The value for `CC(=O)NCCOc1ccc(C[C@@H]2NC(=O)[C@H](CCc3ccc(O)cc3)NC(=O)[C@@H](CO)NC(=O)[C@H](CC(C)C)NC(=O)[C@H](Cc3c[nH]c4ccccc34)NC(=O)[C@H](Cc3ccc(-c4ccc(C(=O)O)cc4)cc3)NC(=O)CNC(=O)[C@@H](C)N(C)C(=O)[C@H](CC(=O)O)NC(=O)[C@H]([C@@H](C)c3c[nH]c4cccc(F)c34)NC(=O)[C@@H]3C[C@@H](N)CN3C(=O)CNC(=O)[C@H](Cc3ccc(C(=O)O)cc3)NC(=O)[C@H](Cc3c[nH]c4ccccc34)NC2=O)cc1` [Example 171] (cyclo([AEF](Ac)W[Phe(4-COOH)]G[Pro(4R-NH2)][Trp(βS-Me,4-F)]D[dNMeA]G[Bip(4'-COOH)]WL[dS][hTyr])) was 0.145 nM. In the case of `CC(=O)NCCOc1ccc(C[C@@H]2NC(=O)[C@H](CCc3ccc(O)cc3)NC(=O)[C@@H](C)NC(=O)[C@H](CO)NC(=O)[C@H](Cc3c[nH]c4ccccc34)NC(=O)[C@H](Cc3ccc(-c4ccc(C(=O)O)cc4)cc3)NC(=O)CNC(=O)[C@@H](C)N(C)C(=O)[C@H](CC(=O)O)NC(=O)[C@H]([C@@H](C)c3c[nH]c4cccc(F)c34)NC(=O)[C@@H]3C[C@@H](N)CN3C(=O)CNC(=O)[C@H](Cc3ccc(C(=O)O)cc3)NC(=O)[C@H](Cc3c[nH]c4ccccc34)NC2=O)cc1` [Example 172] (cyclo([AEF](Ac)W[Phe(4-COOH)]G[Pro(4R-NH2)][Trp(βS-Me,4-F)]D[dNMeA]G[Bip(4'-COOH)]WS[dA][hTyr])), the IC50 is 0.246 nM. Under `CC(=O)NCCOc1ccc(C[C@@H]2NC(=O)[C@H](Cc3ccc(OCCNC(C)=O)cc3)NC(=O)[C@@H](C)NC(=O)[C@H](CO)NC(=O)[C@H](Cc3c[nH]c4ccccc34)NC(=O)[C@H](Cc3ccc(-c4ccc(C(=O)O)cc4)cc3)NC(=O)CNC(=O)[C@@H](C)N(C)C(=O)[C@H](CC(=O)O)NC(=O)[C@H]([C@@H](C)c3c[nH]c4cccc(F)c34)NC(=O)[C@@H]3C[C@@H](N)CN3C(=O)CNC(=O)[C@H](Cc3ccc(C(=O)O)cc3)NC(=O)[C@H](Cc3c[nH]c4ccccc34)NC2=O)cc1` [Example 173] (cyclo([AEF](Ac)W[Phe(4-COOH)]G[Pro(4R-NH2)][Trp(βS-Me,4-F)]D[dNMeA]G[Bip(4'-COOH)]WS[dA][AEF](Ac))) stands 0.959 nM; under `CC(=O)N1CCN(c2ccc(C[C@@H]3NC(=O)[C@H](CCC4CCCCC4)NC(=O)[C@@H](C)NC(=O)[C@H](CC(C)C)NC(=O)[C@H](CCN)NC(=O)[C@H](Cc4ccc(-c5ccc(C(=O)O)cc5)cc4)NC(=O)CNC(=O)[C@@H](C)N(C)C(=O)[C@H](CC(=O)O)NC(=O)[C@H]([C@@H](C)c4cccc5ccccc45)NC(=O)[C@@H]4C[C@@H](N)CN4C(=O)CNC(=O)[C@H](Cc4ccc(C(=O)O)cc4)NC(=O)[C@H](Cc4c[nH]c5ccccc45)NC3=O)cn2)CC1` [Example 174] (cyclo([X1]W[Phe(4-COOH)]G[Pro(4R-NH2)][1Nal(3S-Me)]D[dNMeA]G[Bip(4'-COOH)][Dab]L[dA][hCha])), 0.015 nM; under `CC(=O)N1CCN(c2ccc(C[C@@H]3NC(=O)[C@H](CCC4CCCCC4)NC(=O)[C@@H](C)NC(=O)[C@H](CC(C)C)NC(=O)[C@H](CN)NC(=O)[C@H](Cc4ccc(-c5ccc(C(=O)O)cc5)cc4)NC(=O)CNC(=O)[C@@H](C)N(C)C(=O)[C@H](CC(=O)O)NC(=O)[C@H]([C@@H](C)c4cccc5ccccc45)NC(=O)[C@@H]4C[C@@H](N)CN4C(=O)CNC(=O)[C@H](Cc4ccc(C(=O)O)cc4)NC(=O)[C@H](Cc4c[nH]c5ccccc45)NC3=O)cn2)CC1` [Example 175] (cyclo([X1]W[Phe(4-COOH)]G[Pro(4R-NH2)][1Nal(3S-Me)]D[dNMeA]G[Bip(4'-COOH)][Dap]L[dA][hCha])), 0.016 nM. Under `CC(=O)N1CCN(c2ccc(C[C@@H]3NC(=O)[C@H](CCc4cncc(C#N)c4)NC(=O)[C@@H](C)NC(=O)[C@H](CC(C)C)NC(=O)[C@H](CCCC(N)=O)NC(=O)[C@H](Cc4ccc(-c5ccc(C(=O)O)cc5)cc4)NC(=O)CNC(=O)[C@@H](C)N(C)C(=O)[C@H](CC(=O)O)NC(=O)[C@H]([C@@H](C)c4cccc5ccccc45)NC(=O)[C@@H]4C[C@@H](N)CN4C(=O)CNC(=O)[C@H](Cc4ccc(C(=O)O)cc4)NC(=O)[C@H](Cc4c[nH]c5ccccc45)NC3=O)cn2)CC1` [Example 176] (cyclo([X1]W[Phe(4-COOH)]G[Pro(4R-NH2)][1Nal(3S-Me)]D[dNMeA]G[Bip(4'-COOH)][Aad](NH2)L[dA][h3Pal(5-CN)])) stands 0.017 nM; under `CC(=O)N1CCN(c2ccc(C[C@@H]3NC(=O)[C@H](CCC4CCCCC4)NC(=O)[C@@H](C)NC(=O)[C@H](CC(C)C)NC(=O)[C@H](CCCCN)NC(=O)[C@H](Cc4ccc(-c5ccc(C(=O)O)cc5)cc4)NC(=O)CNC(=O)[C@@H](C)N(C)C(=O)[C@H](CC(=O)O)NC(=O)[C@H]([C@@H](C)c4cccc5ccccc45)NC(=O)[C@@H]4C[C@@H](N)CN4C(=O)CNC(=O)[C@H](Cc4ccc(C(=O)O)cc4)NC(=O)[C@H](Cc4c[nH]c5ccccc45)NC3=O)cn2)CC1` [Example 177] (cyclo([X1]W[Phe(4-COOH)]G[Pro(4R-NH2)][1Nal(3S-Me)]D[dNMeA]G[Bip(4'-COOH)]KL[dA][hCha])), 0.013 nM.
